Data published in patent US8536229B2, “Acetylene derivatives having MGluR 5 antagonistic activity” (Novartis AG, priority 2001, dated 2013).

Experiments:
[1] = tested on: stress-induced hyperthermia in mice; assay: stress-induced hyperthermia in mice; type: in vivo; settings: reduced from 0.92±0.09° C., p<0.001
Procedure: A. Lecci at al., Psychopharmacol. 101, 255-261]. At doses of about 0.1 to about 30 mg/kg p.o., the agents of the invention reverse the stress-induced hyperthermia.

SMILES	melting point	other results
CCOC(=O)N1CC[C@@H]2[C@H]1CCC[C@@]2(O)C#Cc1ccc(F)cc1 (racemic) [Example 1i, (±)-(3aRS,4SR,7aRS)-4-(4-Fluoro-phenylethynyl)-4-hydroxy-octahydro-indole-1-carboxylic acid ethyl ester]	115 to 116 °C	–
CC(=O)N[C@@H]1CCC[C@@](O)(C#Cc2cccc(C)c2)C1 (racemic) [Example 6m, (±)-(1RS,3SR)-N-(3-hydroxy-3-m-tolylethynyl-cyclohexyl)-acetamide]	152 to 155 °C	–
CCOC(=O)N[C@@H]1CCC[C@@](O)(C#Cc2cccc(C)c2)C1 (racemic) [Example 6o, (±)-(1RS,3SR)-(3-Hydroxy-3-m-tolylethynyl-cyclohexyl)-carbamic acid ethyl ester]	106 to 107 °C	–
CCOC(=O)N[C@@H]1CCC[C@@](O)(C#Cc2cccc(F)c2)C1 (racemic) [Example 6u, (±)-(1RS,3SR)-[3-(3-Fluoro-phenylethynyl)-3-hydroxy-cyclohexyl]-carbamic acid ethyl ester]	121 to 123 °C	–
COC(=O)N1CC[C@@H]2[C@H]1CCC[C@@]2(O)C#Cc1cccc(C)c1 [Example 1, (−)-(3aR,4S,7aR)-4-Hydroxy-4-m-tolylethynyl-octahydro-indole-1-carboxylic acid methyl ester]	–	stress-induced hyperthermia ([1]; 0.1 mg/kg p.o.): 0.56±0.06 °C; stress-induced hyperthermia ([1]; 1 mg/kg p.o.): 0.42±0.06 °C; stress-induced hyperthermia ([1]; 10 mg/kg p.o.): 0.18±0.05 °C
CCOC(=O)N1CC[C@@H]2[C@H]1CCC[C@@]2(O)C#Cc1cccc(C)c1 [Example 1a, (−)-(3aR,4S,7aR)-4-Hydroxy-4-m-tolylethynyl-octahydro-indole-1-carboxylic acid ethyl ester]	118 to 121 °C	–
Cc1cccc(C#C[C@]2(O)CCC[C@@H]3[C@H]2CCN3C(=O)c2ccco2)c1 [Example 1b, (−)-(3aR,4S,7aR)-Furan-2-yl-(4-hydroxy-4-m-tolylethynyl-octahydro-indol-1-yl)-methanone]	195.5 to 196.5 °C	–
